Source: patent US20250207131A1, “MODIFIED RNA AGENTS WITH REDUCED OFF-TARGET EFFECT” (Alnylam Pharmaceuticals, Inc., priority 2018, published 2025)
[UNA] = unlocked nucleic acid; d = 2'-deoxy (DNA); r = 2'-OH (RNA); f = 2'-fluoro

What was measured:
[1] = UV thermal melting temperatures of mUNA 12-mer duplexes; assay type: physicochemical; conditions: for ΔTm (° C.): relative to unmodified duplex; for Tm (° C.)a / Tm (° C.)b: mUNA 12-mer duplexes, 2.0 μM each strand, pH 7.4
Excerpt: (§1) Values were reported as the maximum of the first derivative and are the average of at least two experiments.

[2] = UV thermal melting temperatures of TNA 12-mer duplexes; assay type: physicochemical; conditions: 1×PBS; for ΔTm (° C.): relative to unmodified duplex; for Tm (° C.): TNA 12-mer duplexes, 2.0 μM each strand, pH 7.4
Excerpt: Values were reported as the maximum of the first derivative and are the average of at least two experiments. […] The structures x and y are shown here:
as §1

Row | Substance | ΔTm (° C.) ([1]; 8×PBS) [°C] | Tm (° C.)a ([1]; 1x PBS) [°C] | Tm (° C.)b ([1]; 8×PBS) [°C] | ΔTm (° C.) [2] [°C] | Tm (° C.) [2] [°C] | ΔTm (° C.) ([1]; 1x PBS) [°C]
1 | AD-511256.1 (sense TACAGUCTATGT; antisense ACAUAGACUGUA; sense: chemistry not given here; antisense: RNA, backbone not given here; sense strand has one mUNA-type uridine (Uun)) | −20.6 | <30 | 28.6 | – | – | –
2 | AD-511236.1 (sense TACAGUCTATGT; antisense ACATAGACTGTA; sense: chemistry not given here; antisense: DNA, backbone not given here; sense strand has one mUNA-type uridine (Uun)) | −25.5 | <30 | 23.6 | – | – | –
3 | AD-64367.3 (sense TACAGTCTATGT; antisense ACATAGACTGTA; DNA, backbone not given here) | – | – | – | 0 | 42.42 | –
4 | AD-649419.1 (sense TACAGTCTATGT; antisense ACATAGACTGTA; chemistry not fully specified) | – | – | – | 1.8 | 44.22 | –
5 | AD-64367.2 (sense TACAGTCTATGT; antisense ACATAGACTGTA; DNA, backbone not given here) | 0.0 | 43.1 | 49.1 | – | – | –
6 | AD-649411.1 (sense UACAGUCUAUGU; antisense ACAUAGACUGUA; chemistry not fully specified) | – | – | – | −11 | 41.57 | –
7 | AD-511227.1 (sense UACAGUCUAUGU; antisense ACAUAGACUGUA; sense: sugars from the 5' end r5 [UNA]1 r6, backbone not given here; antisense: RNA, backbone not given here) | −17.5 | 35.5 | 43.6 | – | – | −16.6
8 | AD-72587.2 (sense UACAGUCUAUGU; antisense ACAUAGACUGUA; siRNA; one TNA cytidine in sense strand, plain letters not given here, further chemistry not given here) | – | – | – | −5.45 | 47.12 | –
9 | AD-649426.1 (sense TACAGTCTATGT; antisense ACATAGACTGTA; sense: sugars from the 5' end d6 f1 d5, backbone not given here; antisense: sugars from the 5' end d5 f1 d6, backbone not given here) | – | – | – | 0.1 | 42.77 | –
10 | AD-511247.1 (sense TACAGTCTATGT; antisense ACAUAGACUGUA; sense: DNA, backbone not given here; antisense: RNA, backbone not given here) | 0.0 | 42.1 | 49.1 | – | – | –
11 | AD-64367.4 (sense TACAGTCTATGT; antisense ACATAGACTGTA; DNA, backbone not given here) | – | – | – | 0 | 42.67 | –
12 | AD-511246.1 (sense UACAGUCUAUGU; antisense ACATAGACTGTA; sense: chemistry not given here; antisense: DNA, backbone not given here; sense strand has one mUNA-type uridine (Uun)) | −20.5 | <30 | 24.6 | – | – | –
13 | AD-649423.1 (sense TACAGTCTATGT; antisense ACATAGACTGTA; sense: sugars from the 5' end d6 f1 d5, backbone not given here; antisense: DNA, backbone not given here) | – | – | – | −0.325 | 42.345 | –
14 | AD-649425.1 (sense TACAGUCTATGT; antisense ACATAGACTGTA; sense: sugars from the 5' end d5 f1 d6, backbone not given here; antisense: sugars from the 5' end d6 f1 d5, backbone not given here) | – | – | – | −2.5 | 40.17 | –
15 | AD-649418.1 (sense TACAGTCTATGT; antisense ACATAGACTGTA; sense: chemistry not given here; antisense: DNA, backbone not given here; further chemistry not fully specified) | – | – | – | −1.78 | 40.64 | –
16 | AD-649412.1 (sense UACAGUCUAUGU; antisense ACAUAGACUGUA; sense: RNA, backbone not given here; antisense: chemistry not given here; further chemistry not fully specified) | – | – | – | 0.55 | 53.17 | –
17 | AD-649414.1 (sense UACAGUCUAUGU; antisense ACAUAGACUGUA; chemistry not fully specified) | – | – | – | 0.45 | 53.07 | –

Row | Substance | ΔTm (° C.) ([1]; 8×PBS) [°C] | Tm (° C.)a ([1]; 1x PBS) [°C] | Tm (° C.)b ([1]; 8×PBS) [°C] | ΔTm (° C.) [2] [°C] | Tm (° C.) [2] [°C] | ΔTm (° C.) ([1]; 1x PBS) [°C]
18 | AD-649417.1 (sense TACAGTCTATGT; antisense ACATAGACTGTA; chemistry not fully specified) | – | – | – | 0.65 | 43.07 | –
19 | AD-72586.2 (sense TACAGTCTATGT; antisense ACATAGACTGTA; siRNA; chemistry not fully specified) | – | – | – | 2.1 | 40.32 | –
20 | AD-649424.1 (sense TACAGTCTATGT; antisense ACATAGACTGTA; sense: DNA, backbone not given here; antisense: sugars from the 5' end d5 f1 d6, backbone not given here) | – | – | – | 0.275 | 42.945 | –
21 | AD-649416.1 (sense UACAGUCUAUGU; antisense ACAUAGACUGUA; sense: RNA, backbone not given here; antisense: sugars from the 5' end r5 f1 r6, backbone not given here) | – | – | – | 2.7 | 55.32 | –
22 | AD-72585.2 (sense UACAGTCUAUGU; antisense ACAUAGACUGUA; siRNA; one TNA thymine in sense strand, plain letters not given here, further chemistry not given here) | – | – | – | −4.825 | 47.745 | –
23 | AD-511237.1 (sense UACAGUCUAUGU; antisense ACATAGACTGTA; sense: RNA, backbone not given here; antisense: DNA, backbone not given here) | 0.0 | 39.1 | 45.1 | – | – | –
24 | AD-649409.1 (sense UACAGUCUAUGU; antisense ACAUAGACUGUA; chemistry not fully specified) | – | – | – | −4.9 | 47.67 | –
25 | AD-64980.2 (sense UACAGUCUAUGU; antisense ACAUAGACUGUA; siRNA; one 2'-fluoro U in sense strand, plain letters not given here, further chemistry not given here) | – | – | – | 0.52 | 53.14 | –
26 | AD-649421.1 (sense TACAGTCTATGT; antisense ACATAGACTGTA; chemistry not fully specified) | – | – | – | −2.365 | 40.055 | –
27 | AD-64366.3 (sense UACAGUCUAUGU; antisense ACAUAGACUGUA; RNA, backbone not given here) | – | – | – | 0 | 52.57 | –
28 | AD-649420.1 (sense TACAGTCTATGT; antisense ACATAGACTGTA; chemistry not fully specified) | – | – | – | −2.5 | 39.92 | –
29 | AD-64366.2 (sense UACAGUCUAUGU; antisense ACAUAGACUGUA; RNA, backbone not given here) | 0.0 | 52.1 | 61.1 | – | – | 0.0
30 | AD-649408.1 (sense UACAGUCUAUGU; antisense ACAUAGACUGUA; chemistry not fully specified) | – | – | – | −4.5 | 48.07 | –
31 | AD-64981.2 (sense TACAGUCTATGT; antisense ACATAGACTGTA; siRNA; sense: sugars from the 5' end d5 f1 d6, backbone not given here; antisense: DNA, backbone not given here) | – | – | – | −2.615 | 40.055 | –
32 | AD-649415.1 (sense UACAGUCUAUGU; antisense ACAUAGACUGUA; sense: sugars from the 5' end r5 f1 r6, backbone not given here; antisense: sugars from the 5' end r6 f1 r5, backbone not given here) | – | – | – | 1.6 | 54.22 | –
33 | AD-64366.4 (sense UACAGUCUAUGU; antisense ACAUAGACUGUA; RNA, backbone not given here) | – | – | – | 0 | 52.62 | –
34 | AD-649422.1 (sense TACAGTCTATGT; antisense ACATAGACTGTA; sense: DNA, backbone not given here; antisense: sugars from the 5' end d6 f1 d5, backbone not given here) | – | – | – | −0.4 | 42.27 | –
